Laboratory results published in PMC12211128, “Safety, tolerability, pharmacokinetic and pharmacodynamic effects of the muscarinic M1 positive allosteric modulator VU0467319 for Alzheimer’s disease: a single ascending-dose study in healthy participants” (Alzheimer's Research & Therapy, 2025).

Experiments:
healthy participants = assay: Choice reaction time task (CRT); type: in vivo, human; conditions: for CRT Median Motor Time / CRT Median Recognition Time / CRT Median Total Time: mean (SD)
Text: (§1) The choice reaction time (CRT; [31]) task was used to measure psychomotor speed. Outcome variables on the CRT were the median total reaction time, which can be broken down into the recognition time (time from stimulus onset to initiation of movement), and the motor reaction time (time from initiation of movement to stimulus termination).
Cognitive data: In this exploratory analysis, each outcome variable of the cognitive data was examined in a mixed model analysis of variance with one between-subjects factor of VU319 dose (0, 60, 120, 240, 400, 600 mg) and a within-subjects factor of testing session (pre-dose vs. post-dost administration). Post-hoc analysis compared each of the VU319 dose cohorts against the placebo group. Because the participants were healthy adults with normal cognitive function, we considered effects between no reductions in function to small improvement (d = 0.0–0.20) to be a positive result. For the food effect study, only the participants who received VU319 were examined due to the disproportionately small placebo group (n = 2). A within-subjects ANOVA including food condition (fasted/fed) and testing session (pre-dose vs. post-dose administration) was performed on each outcome variable.
as §1, with “(Hindmarch, 1984))” for “[31])”

[1] = Urine pharmacokinetics, single ascending dose and food effect studies; type: in vivo, human; conditions: for CLR (renal clearance) / Max_Rate (maximum observed excretion rate) / Total %fe / Total Ae: mean (SD); for Max_Rate (maximum observed excretion rate) / Total %fe / Total Ae / Tmax_Rate: urine; for Tmax_Rate: median (min, max)
Experimental: Blood samples (4 mL) were obtained by direct venipuncture into K2 EDTA tubes at 0.5 h pre-dose and at 0.5, 1, 1.5, 2, 2.5, 3, 5, 7, 9, 12, 24, 26, 28, 36, 48 and 144-hours post-dose. […] Urine samples for PK quantification were collected at pre-dose and 2, 5, 12, 24, 36 and 144-hours post-dose.
Determination of plasma and urine concentrations of VU319 and metabolite VU0481424 (VU424) was carried out in compliance with Good Laboratory Practice using a validated method at Illinois Institute of Technology Research Institute (IITRI) laboratories. Pharmacokinetic endpoints included the following VU319 parameters for plasma: area under the plasma concentration-time curve (AUC0 − 48); area under the plasma concentration-time curve extrapolated to infinity (AUC0−∞); percentage of the extrapolated area under the plasma concentration-time curve (%AUCextrap); maximum observed plasma concentration (Cmax); time (in hours) at which Cmax occurred (Tmax); clearance (Cl/F); elimination half-life (t1/2) and volume of distribution (Vd/F). Pharmacokinetic endpoints for VU319 for urine included the following parameters: renal clearance (CLu); amount excreted in urine (Ae) and percent excreted in urine (Ae%).
Single-dose PK parameters were derived from the plasma time concentrations and urinary concentrations. Pharmacokinetic parameters were summarized for each dose group using standard descriptive statistics. Summary statistics (mean, SD, min, max, coefficient of variation %) were calculated for each PK parameter. Plasma samples collected outside of the permitted windows (± 5 min for 0 to 48 h, inclusive; ±3 h for 72 to 144 h, inclusive) were flagged, footnoted in listings of PK concentration data, and excluded from the summary statistics and mean graphs of concentration data. However, these values were used in the calculation of the PK parameters and were also included in the individual concentration/time listings and figures. In this study, no concentration values were excluded due to implausibility.
Missing pre-dose PK concentrations were imputed as 0 in PK parameter calculations. Otherwise, missing data were not imputed. Actual post-dose sampling times were used in the calculation of plasma PK parameters and in the generation of individual concentration-time profiles. Nominal sampling times were used as a replacement for unknown or missing actual times and for the pre-dose values. Nominal sampling timepoints were used in the generation of mean plots and summary tables. For urine samples, nominal intervals were used. All PK analyses were performed using Statistical Analysis Software (SAS®; SAS Institute Inc., Cary, NC) version 9.4.

[2] = Food effect study 120 mg, Fasting, Post-Drug
[3] = Food effect study 120 mg, Fasting, Pre-Drug
[4] = Food effect study 120 mg, Fed, Post-Drug
[5] = Food effect study 120 mg, Fed, Pre-Drug
[6] = VU319 120 mg oral, fasted, food effect study
[7] = VU319 120 mg oral, fed, food effect study

Cn1cc2c(-c3cc(F)c(CN4Cc5ncccc5C4=O)c(F)c3)cccc2n1 [VU319]
CRT Median Motor Time (healthy participants; [2]): 299.2 (24.19) ms
CRT Median Recognition Time (healthy participants; [2]): 370.55 (33.17) ms
CRT Median Total Time (healthy participants; [2]): 679.55 (35.68) ms
CRT Median Motor Time (healthy participants; [3]): 302 (40.02) ms
CRT Median Recognition Time (healthy participants; [3]): 384.9 (53.58) ms
CRT Median Total Time (healthy participants; [3]): 691.25 (64.17) ms
CRT Median Motor Time (healthy participants; [4]): 297.25 (36.2) ms
CRT Median Recognition Time (healthy participants; [4]): 369.4 (41.57) ms
CRT Median Total Time (healthy participants; [4]): 673.65 (47.86) ms
CRT Median Motor Time (healthy participants; [5]): 321.5 (36.67) ms
CRT Median Recognition Time (healthy participants; [5]): 365.45 (41.27) ms
CRT Median Total Time (healthy participants; [5]): 695.7 (47.32) ms
CRT Median Motor Time (healthy participants; SAD study, 60 mg, Post-Drug): 330.42 (64.58) ms
CRT Median Recognition Time (healthy participants; SAD study, 60 mg, Post-Drug): 394.92 (82.56) ms
CRT Median Total Time (healthy participants; SAD study, 60 mg, Post-Drug): 734.25 (120.68) ms
CRT Median Motor Time (healthy participants; SAD study, 60 mg, Pre-Drug): 331.08 (35.75) ms
CRT Median Recognition Time (healthy participants; SAD study, 60 mg, Pre-Drug): 391.33 (59.93) ms
CRT Median Total Time (healthy participants; SAD study, 60 mg, Pre-Drug): 735.08 (60.61) ms
CRT Median Motor Time (healthy participants; SAD study, 120 mg, Post-Drug): 332.67 (89.6) ms
CRT Median Recognition Time (healthy participants; SAD study, 120 mg, Post-Drug): 389 (43.6) ms
CRT Median Motor Time (healthy participants; SAD study, 120 mg, Pre-Drug): 329.08 (80.22) ms
CRT Median Recognition Time (healthy participants; SAD study, 120 mg, Pre-Drug): 384.92 (42.09) ms
CRT Median Total Time (healthy participants; SAD study, 120 mg, Pre-Drug): 718.58 (103.36) ms
CRT Median Motor Time (healthy participants; SAD study, 240 mg, Post-Drug): 353.25 (69.11) ms
CRT Median Recognition Time (healthy participants; SAD study, 240 mg, Post-Drug): 399 (83.54) ms
CRT Median Total Time (healthy participants; SAD study, 240 mg, Post-Drug): 759.42 (151.55) ms
CRT Median Motor Time (healthy participants; SAD study, 240 mg, Pre-Drug): 374.58 (64.5) ms
CRT Median Recognition Time (healthy participants; SAD study, 240 mg, Pre-Drug): 410.5 (68.61) ms
CRT Median Total Time (healthy participants; SAD study, 240 mg, Pre-Drug): 800.92 (121.25) ms
CRT Median Motor Time (healthy participants; SAD study, 400 mg, Post-Drug): 334.33 (33) ms
CRT Median Recognition Time (healthy participants; SAD study, 400 mg, Post-Drug): 388.17 (40.47) ms
CRT Median Total Time (healthy participants; SAD study, 400 mg, Post-Drug): 728.92 (57.1) ms
CRT Median Motor Time (healthy participants; SAD study, 400 mg, Pre-Drug): 331 (38.55) ms
CRT Median Recognition Time (healthy participants; SAD study, 400 mg, Pre-Drug): 396.67 (41.84) ms
CRT Median Total Time (healthy participants; SAD study, 400 mg, Pre-Drug): 731 (55.14) ms
CRT Median Motor Time (healthy participants; SAD study, 600 mg, Post-Drug): 282.33 (56.95) ms
CRT Median Recognition Time (healthy participants; SAD study, 600 mg, Post-Drug): 362.67 (52.01) ms
CRT Median Total Time (healthy participants; SAD study, 600 mg, Post-Drug): 649.58 (71.76) ms
CRT Median Motor Time (healthy participants; SAD study, 600 mg, Pre-Drug): 291.42 (46.98) ms
CRT Median Recognition Time (healthy participants; SAD study, 600 mg, Pre-Drug): 364.92 (18.0) ms
CRT Median Total Time (healthy participants; SAD study, 600 mg, Pre-Drug): 662.17 (61.66) ms
CRT total, recognition and motor time, effect of dose (healthy participants; SAD study, all p > 0.1): no effect of dose, session, nor a dose by session interaction
CRT recognition time, food condition by session interaction, effect size d (healthy participants; food effect study, 120 mg, p = 0.027, quicker recognition post-dose in fasted condition): 1.76
CLR (renal clearance) ([1]; VU319 60 mg oral, SAD): 1.25 (0.303) mL/h
CLR (renal clearance) ([1]; VU319 120 mg oral, SAD): 1.16 (0.537) mL/h
CLR (renal clearance) [1, 6]: 1.24 (0.36) mL/h
CLR (renal clearance) [1, 7]: 1.48 (0.4) mL/h
CLR (renal clearance) ([1]; VU319 240 mg oral, SAD): 1.13 (0.657) mL/h
CLR (renal clearance) ([1]; VU319 400 mg oral, SAD): 0.97 (0.42) mL/h
CLR (renal clearance) ([1]; VU319 600 mg oral, SAD): 0.673 (0.34) mL/h
Total %fe (fraction of the dose excreted unchanged in urine) ([1]; all dose levels): < 0.1%
Max_Rate (maximum observed excretion rate) ([1]; VU319 60 mg oral, SAD): 0.0024 (0.0012) mg/h
Total %fe ([1]; VU319 60 mg oral, SAD): 0.075 (0.034) %
Total Ae ([1]; VU319 60 mg oral, SAD): 0.045 (0.021) mg
Tmax_Rate ([1]; VU319 60 mg oral, SAD): 3.5 (3.5, 8.5) h
Max_Rate (maximum observed excretion rate) ([1]; VU319 120 mg oral, SAD): 0.0032 (0.0025) mg/h
Total %fe ([1]; VU319 120 mg oral, SAD): 0.051 (0.026) %
Total Ae ([1]; VU319 120 mg oral, SAD): 0.061 (0.032) mg
Tmax_Rate ([1]; VU319 120 mg oral, SAD): 8.5 (3.5, 18.0) h
Max_Rate (maximum observed excretion rate) [1, 6]: 0.0025 (0.0011) mg/h
Total Ae [1, 6]: 0.068 (0.026) mg
Tmax_Rate [1, 6]: 8.5 (3.5, 30) h
Max_Rate (maximum observed excretion rate) [1, 7]: 0.005 (0.003) mg/h
Total %fe [1, 7]: 0.075 (0.028) %
Total Ae [1, 7]: 0.091 (0.034) mg
Tmax_Rate [1, 7]: 6.0 (1.0, 8.5) h
Max_Rate (maximum observed excretion rate) ([1]; VU319 240 mg oral, SAD): 0.0053 (0.0024) mg/h
Total %fe ([1]; VU319 240 mg oral, SAD): 0.039 (0.017) %
Total Ae ([1]; VU319 240 mg oral, SAD): 0.093 (0.042) mg
Tmax_Rate ([1]; VU319 240 mg oral, SAD): 6.0 (3.5, 18.0) h
Max_Rate (maximum observed excretion rate) ([1]; VU319 400 mg oral, SAD): 0.0056 (0.0018) mg/h
Total %fe ([1]; VU319 400 mg oral, SAD): 0.0297 (0.015) %
Total Ae ([1]; VU319 400 mg oral, SAD): 0.12 (0.058) mg
Tmax_Rate ([1]; VU319 400 mg oral, SAD): 6.0 (3.5, 30.0) h
Max_Rate (maximum observed excretion rate) ([1]; VU319 600 mg oral, SAD): 0.0051 (0.0027) mg/h
Total %fe ([1]; VU319 600 mg oral, SAD): 0.024 (0.011) %
Total Ae ([1]; VU319 600 mg oral, SAD): 0.143 (0.065) mg
Tmax_Rate ([1]; VU319 600 mg oral, SAD): 6.0 (3.5, 42.0) h
